Data on three compounds can be found in PubChem BioAssay (NCI).

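Each compound was tested at five concentrations against cells in 96-well plates for 48 hours. GI50 marks 50% less growth. At the TGI there is no net growth.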

Common to all, as to assay: growth of human tumour cells (NCI), 48 h
The subject of experiment [1] is OVCAR-5 ovarian.
In experiment [2] the test system is NCI-H460 lung.
For experiment [3], the system named is NCI-H23 lung.
Experiment [4] concerns HL-60(TB) leukemia.
Experiment [5] deals with HCC-2998 colon.
Experiment [6] concerns MDA-MB-231 breast.
Experiment [7] has as its system SK-MEL-28 melanoma.
Experiment [8] deals with SK-MEL-5 melanoma.
Experiment [9] relates to EKVX NSCLC.
Experiment [10] has as its system SNB-75 CNS.

Turning to `NS(=O)(=O)c1ccc(N=Nc2c(O)[nH]c3cccc(CCc4ccncc4)c23)cc1`, the GI50 in experiment [1], in [2], in [3], in experiment [4], in experiment [5] and in experiment [6] was more than 25 µM each time. In addition, the GI50 in experiment [7], in experiment [8], in experiment [9] and in experiment [10] was more than 25 µM throughout. In addition, the TGI in experiment [1], in experiment [2], in [3], in experiment [4], in experiment [5] and in experiment [6] was more than 25 µM each time. For the same compound, the TGI in experiment [7], in [8], in experiment [9] and in [10] was more than 25 µM in each case.
Turning to `COc1cc2cc(Oc3ccc(NC(=O)Nc4ccc(F)c(C(F)(F)F)c4)cc3)c(C)nc2cc1OCCN1CCOCC1`, the GI50 in experiment [1] was 5.11 µM; in experiment [2], 1.96 µM; in experiment [3], 1.43 µM; in experiment [4] it was 2.38 µM; in [5], 5.34 µM; in experiment [6], 2.83 µM. Further, the GI50 in experiment [7] was 1.62 µM; in experiment [8], 1.14 µM; in experiment [9], 2.53 µM; in [10], 1.96 µM. The TGI in experiment [1] stood at 21.7 µM; in experiment [2] it was 5.34 µM; in experiment [3], 5.88 µM; in experiment [4], 6.14 µM; in experiment [5], 16.7 µM; in experiment [6], 9.02 µM. The TGI in experiment [7] stood at 3.13 µM; in experiment [8], 2.36 µM; in [9] it was 20.7 µM; in [10] it was 7.45 µM.
In the case of `CN(CCNc1ccc(C(=N)N)cc1)c1ccc(C(=N)N)cc1`, the GI50 in [1] is more than 100 µM; in [2], 4.74 µM; in [3], 21.6 µM; in experiment [4] it was 49.4 µM; in experiment [5], 97.3 µM; in experiment [6], more than 100 µM. The GI50 was 36.4 µM in [7], 13.2 µM in experiment [8], 20 µM in experiment [9] and 27.6 µM in experiment [10]. Also, the TGI in [1], in [2], in experiment [3], in experiment [4], in experiment [5] and in experiment [6] was more than 100 µM each time. In addition, the TGI in [7] is more than 100 µM; in experiment [8], 28.3 µM; in experiment [9], more than 100 µM; in experiment [10], more than 100 µM.
